According to US11116799B2, “Generation of uniform hepatocytes from human embryonic stem cells by inhibiting TGF-beta and methods of maintaining hepatic cultures” (Wisconsin Alumni Research Foundation, priority 2016, dated 2021):
Values joined by “and” are separate entries in the source; they are usually repeats but may differ in a detail not shown here. Identical values can stand only once. “Also recorded” adds a separate entry of the source.

Key:
[1] = system: primary human hepatocytes (PHHs); assay: RNA-Seq gene expression in MAPK inhibitor treated primary human hepatocytes; type: cell-based
Method: […]. […] […].
For small RNA-Seq profiling, hepatocytes from Hu8082 were used; for de-differentiation time course and let-7c transduction, hepatocytes from Hu4260, Hu8135, Hu4279 and Hu8137 were used. For both experiments, cells from all 4 donors were mixed in equal numbers after assessment of viability. For small molecule treatments, batch Hu4260 was used.
RNA-Seq was performed by LM-Seq (Illumina).
For small molecule treatments, batch Hu4260 was used.
. To ascertain that the increase in metabolic enzymes took place through specific MAPK inhibition, PHHs were treated with a second MAPK inhibitor, PD0325901, for 72 hours, followed by RNA-Seq analysis (Supplementary Table 4). […].

CYP2C9 = conditions: HepG2, treated 72 hours
Method: (§1) CYP2C9 and 3A4 metabolism were measured using CYP450 Glo assay (Promega). In short, substrates were added to the media and incubated for 72 hours and the amount of metabolites generated were measured by adding the detection reagent and quantifying the luminescence in a Tecan® plate reader. Background was measured by incubating the substrates for 72 hours in the same media without cells. Cell counting for proliferation assay was carried out by dye exclusion in an automated cell counter (ThermoFisher).
CYP2C9 and 3A4 metabolism were measured using CYP450 Glo assay (Promega). Substrates were added to the media and incubated for 72 hours and the amount of metabolite generated were measured by adding the detection reagent and quantifying the luminescence in a Tecan plate reader. Background was measured by incubating the substrates for 72 hours in the same media without cells.

HepG2 cells [2] = conditions: HepG2 treated 72 hours, 10 uM APAP for 1 hour
Excerpt: Samples for LC/MS/MS analysis were processed by solid-phase extraction, and calibrant curves (7 points) for all compounds were generated by spiking standards (Sigma) in E6 media and processed in parallel with samples. An internal standard of deuterated naproxen was included for all analytes. Samples were run on a 0.2×100 mm Cortecs C18 column (Waters Corporation, Milford Mass.) using a Waters Acquity UPLC system coupled to an AB/Sciex Q-Trap 5500 hybrid triple quadrupole instrument (Framingham Mass.). Analytes were detected using multiple-reaction-monitoring with three transitions for each compound being monitored. Each sample was analyzed in triplicate with blanks between each sample analysis. Quantitation was based on area under the curve of the analyte relative to the internal standard and was modeled with a quadratic fit with 1/× weighting using the MultiQuant software (Sciex, Framingham Mass.). […] Average calculated concentrations for each analyte are reported. […] Background was determined by measuring metabolites in media incubated with acetaminophen only for 1 hour and any samples below background were considered nil.
(§2) To test whether the upregulation of metabolic genes at the mRNA level translated into functional metabolic improvement, acetaminophen (APAP) metabolism was assessed by LC/MS/MS.

[3] = system: primary mouse hepatocytes; assay: RNA-Seq gene expression in primary mouse hepatocytes treated with kinase inhibitors; conditions: 10 μM, 72 hours
Excerpt: The next step was to determine if the PI3/Akt and MAPK pathways are involved in maintenance of hepatocyte maturation. We investigated whether small molecule inhibition of these pathways would mimic let-7's action and reduce the loss of mature function of hepatocytes in culture after removal from their microenvironment. […] Then, expression of the top ten important metabolic enzymes (CYPs, UGTs and transporters) by RNA-Seq with uncultured fresh hepatocytes and control vehicle hepatocytes treated for 72 hours was compared.
Hepatocytes from 6 black mice livers were isolated by perfusion following standard protocol and cultured on Matrigel coated plates in hepatocyte growth medium (Promocell). Whole developing livers from 6 black mice were used for RNA isolation with Trizol for let-7c measurements.
(§3) Total RNA (including microRNA) from all cells, which were not mentioned otherwise, were isolated using RNAeasy Plus Kit […] following manufacturers protocol. RNA-Seq was performed by LM-Seq (Illumina). MicroRNAs were sequenced using Illumina's small RNA sequencing kit. Expression of let-7 and U6 snoRNA were measured by quantitative PCR using ABI's kit. Let-7c expression levels were normalized by U6 snoRNA expression (RQ or relative quantity values, error bars representing standard error, RQ min and RQ max).
Multiple batches of cryopreserved induction qualified human hepatocytes (each batch being from one donor) were purchased from Life Technologies and cultured on Matrigel coated plates in hepatocyte growth medium (PromoCell). For dedifferentiation studies, hepatocytes from batches Hu4260, Hu8135, Hu4279 and Hu8137 were used after mixing equal number of live cells. For small molecule treatments, batch Hu4260 was used. Mouse hepatocytes were isolated from Black 6 mice livers by perfusion following standard protocol and cultured on Matrigel coated plates in hepatocyte growth medium (Promocell).
(§4) Total RNA were isolated using RNAeasy Plus Kit (Qiagen) following manufacturers protocol and qualified with the Life Technologies Qubit fluorometer and Agilent Bioanalyzer. […] Final indexed cDNA libraries were pooled and sequenced on an Illumina HiSeq 2500. Base-calling and demultiplexing were performed using Casava (v1.8.2). Sequences were filtered and trimmed to remove low quality reads, adapters, and other sequencing artifacts. The remaining reads were aligned to a reference database comprising only RefSeq-validated transcripts (i.e., assigned an “NM_” accession). Mouse samples were aligned to the mm10 assembly, and human samples were aligned to the hg19 assembly. […] Reads with more than 200 alignments were excluded from further analysis. […] All RNA-seq results have been deposited at NCBI's GEO under Accession No. GSE94353.
The inventors next investigated whether the MAPK and PI3/Akt pathways contributed to the dedifferentiation of hepatocytes. […] Rapamycin was included as a control, which is an inhibitor of the mTOR pathway, a serine/threonine kinase involved in cell signaling not identified as a key pathway in our analysis.

HepG2 cells [4] = assay: HepG2 viability / cell growth (cell counting by dye exclusion); type: cell-based, human; conditions: HepG2, 72 hours, compared to vehicle control
Method: as §1

HepG2 cells [5] = system: HepG2 cells
Method: Both types of cells were treated with a vehicle or small molecule for 72 hours and genes were quantified using RNA-Seq.
as §3, §4, §2

[6] = system: ALB-GFP/tdTomato-AFP marker cell line; conditions: marker line differentiated with TGFB and NOTCH inhibition in E6, then treated 72 hours
Excerpt: We next differentiated the ALB-GFP/tdTomato-AFP marker cell line to hepatocytes with TGFB and NOTCH inhibition in defined E6 medium.

[7] = primary human hepatocytes, treated 72 hours

What does the source list for `N#CC(=C(/N)Sc1ccccc1N)/C(C#N)=C(\N)Sc1ccccc1N` [U0126]?
expression of hepatic nuclear receptors (CAR, FXR, LXR, PPAR, PXR, RAR), change >3-fold ([1]; PHHs): did not significantly change; AFP gene expression [1, 7]: 5.79 transcripts per million; ALB gene expression [1, 7]: 1360.25 transcripts per million; CD81 gene expression [1, 7]: 417.56 transcripts per million; CYP1A2 gene expression [1, 7]: 68.21 transcripts per million; CYP1B1 gene expression [1, 7]: 30.96 transcripts per million; CYP2C9 gene expression [1, 7]: 77.04 transcripts per million; CYP2D6 gene expression [1, 7]: 1.81 transcripts per million; CYP2E1 gene expression [1, 7]: 17.69 transcripts per million; CYP3A4 gene expression [1, 7]: 43.64 transcripts per million; SLC10A1 gene expression [1, 7]: 0.00 transcripts per million; SLCO1B1 gene expression [1, 7]: 153.15 transcripts per million; SLCO1B3 gene expression [1, 7]: 14.65 transcripts per million; UGT1A1 gene expression [1, 7]: 47.57 transcripts per million; UGT1A6 gene expression [1, 7]: 671.53 transcripts per million; UGT1A9 gene expression [1, 7]: 81.41 transcripts per million; CYP2C9 activity (luminescent metabolite formation), increase over vehicle control (CYP2C9): > 10 fold and 10 fold; formation of APAP-glucuronide (HepG2 cells [2]): induced the formation; formation of APAP-glutathione (HepG2 cells [2]): induced the formation; formation of APAP-sulphate (HepG2 cells [2]): increased formation; rate of formation of all APAP metabolites versus PHHs (HepG2 cells [2]): comparable rate to mature adult PHHs; ABCC2 gene expression [3]: 415.86 transcripts per million; CYP1A2 gene expression [3]: 1271.98 transcripts per million; CYP2C9 gene expression [3]: 2676.68 transcripts per million; CYP2E1 gene expression [3]: 217.96 transcripts per million; CYP3A11 gene expression [3]: 632.32 transcripts per million; CYP3A25 gene expression [3]: 112.18 transcripts per million; UGT1A6A gene expression [3]: 232.80 transcripts per million; UGT1A9 gene expression [3]: 184.63 transcripts per million; UGT1A10 gene expression [3]: 2.44 transcripts per million; UGT2B5 gene expression [3]: 995.27 transcripts per million; HepG2 viability / cell growth (HepG2 cells [4]): significant inhibition of cell growth; also recorded: increased cell death and growth arrest; downregulation of fetal gene AFP compared with untreated control (HepG2 cells [5]; HepG2, 72 hours): over 3 orders of magnitude; AFP gene expression (HepG2 cells [5]; HepG2, treated 72 hours): 4.74 transcripts per million; ALB gene expression (HepG2 cells [5]; HepG2, treated 72 hours): 2083.6 transcripts per million; CD81 gene expression (HepG2 cells [5]; HepG2, treated 72 hours): 634.68 transcripts per million; CYP1A2 gene expression (HepG2 cells [5]; HepG2, treated 72 hours): 0.68 transcripts per million; CYP1B1 gene expression (HepG2 cells [5]; HepG2, treated 72 hours): 3.07 transcripts per million; CYP2C9 gene expression (HepG2 cells [5]; HepG2, treated 72 hours): 33.45 transcripts per million; CYP2D6 gene expression (HepG2 cells [5]; HepG2, treated 72 hours): 4.05 transcripts per million; CYP2E1 gene expression (HepG2 cells [5]; HepG2, treated 72 hours): 14.61 transcripts per million; CYP3A4 gene expression (HepG2 cells [5]; HepG2, treated 72 hours): 13.37 transcripts per million; SLC10A1 gene expression (HepG2 cells [5]; HepG2, treated 72 hours): 10.57 transcripts per million; SLCO1B1 gene expression (HepG2 cells [5]; HepG2, treated 72 hours): 120.17 transcripts per million; SLCO1B3 gene expression (HepG2 cells [5]; HepG2, treated 72 hours): 18.83 transcripts per million; UGT1A1 gene expression (HepG2 cells [5]; HepG2, treated 72 hours): 16.61 transcripts per million; UGT1A6 gene expression (HepG2 cells [5]; HepG2, treated 72 hours): 835.05 transcripts per million; UGT1A9 gene expression (HepG2 cells [5]; HepG2, treated 72 hours): 99.71 transcripts per million; expression of hepatic nuclear receptors (CAR, FXR, LXR, PPAR, PXR, RAR), change >3-fold (HepG2 cells [5]; HepG2 cells): did not significantly change; cells expressing both ALB and AFP [6]: 100%
